Assay results published in ChEMBL document CHEMBL3259599, “Novel colchicine-site binders with a cyclohexanedione scaffold identified through a ligand-based virtual screening approach” (J Med Chem, 2014).
Activity calls are given as the source filed them. The rule behind the calls is not given here.

Experiments:
Tubulin (Homo sapiens) = Tubulin (Homo sapiens) (UniProt P68371+Q9H4B7+P0DPH7+P68366+Q13509+Q71U36+P04350+Q3ZCM7+P07437+P68363+Q9BQE3+Q6PEY2+Q13885+Q9BVA1+Q9BUF5)
Description: Binding affinity to tubulin (unknown origin)

[1] = Antiproliferative activity against HMEC1 after 4 days by coulter counter analysis; format: functional; conditions: Homo sapiens, HMEC-1, 96 h
[2] = Antiproliferative activity against MBEC after 3 days by coulter counter analysis; format: functional, Mus musculus
[3] = Antiproliferative activity against BAEC after 3 days by coulter counter analysis; format: functional; conditions: Bos taurus, 72 h
L1210 = test: Antiproliferative activity against mouse L1210 cells after 48 to 96 hrs by coulter counter analysis; format: functional, cell-based
CCRF-CEM = test: Antiproliferative activity against human CEM cells after 48 to 96 hrs by coulter counter analysis; format: functional, cell-based
HeLa = test: Antiproliferative activity against human HeLa cells after 4 days by coulter counter analysis; format: functional, cell-based; conditions: 96 h
Tubulin (Bos taurus) [4] = biological target: T1, Tubulin (Bos taurus) (UniProt Q6B856+Q862L2+Q862F3); test: Displacement of MTC from calf brain tubulin colchicine binding site at 20 uM by fluorescence spectroscopic analysis
Tubulin (Bos taurus) [5] = biological target: T1, Tubulin (Bos taurus); test: Displacement of R-PT from calf brain tubulin at 25 degC by fluorescence spectroscopic analysis
Rattus norvegicus = organism: Rattus norvegicus; test: Binding affinity to rat brain tubulin at 37 degC after 1 to 2 mins by DEAE cellulose filter paper method
[6] = Cell cycle arrest in HMEC1 cells assessed as accumulation at subG1 phase at 0.03 uM after 24 hrs by propidium iodide staining-based flow cytometric analysis; format: functional; conditions: Homo sapiens, HMEC-1
[7] = Cell cycle arrest in HMEC1 cells assessed as accumulation at G2/M phase at 0.03 uM after 24 hrs by propidium iodide staining-based flow cytometric analysis; format: functional; conditions: Homo sapiens, HMEC-1
MDA-MB-231 [8] = test: Competitive binding affinity to beta-tubulin in human MDA-MB-231 cells assessed as inhibition of protein-N/N'-ethylene-bis(iodoacetamide) adduct formation at 0.5 uM preincubated for 16 hrs followed by N/N'-ethylene-bis(iodoacetamide) formation measured after 1.5 hrs by Western blot analysis; format: cell-based
HMEC-1 = test: Antivascular activity in HMEC1 cells assessed as destruction of cord like structure at 0.3 to 1 uM after 90 mins by matrigel assay; format: functional, cell-based; conditions: Homo sapiens
MDA-MB-231 [9] = test: Antimigratory activity against human MDA-MB-231 cells at 0.08 uM after 17 hrs by Transwell assay; format: functional, cell-based
MDA-MB-231 [10] = test: Antiinvasive activity against human MDA-MB-231 cells at 0.08 uM after 17 hrs by Transwell assay; format: functional, cell-based
MDA-MB-231 [11] = test: Antiproliferative activity against human MDA-MB-231 cells at 0.08 uM after 17 hrs; format: functional, cell-based
[12] = Cell cycle arrest in HMEC1 cells assessed as accumulation at subG1 phase at 1 uM after 24 hrs by propidium iodide staining-based flow cytometric analysis; format: functional; conditions: Homo sapiens, HMEC-1
[13] = Cell cycle arrest in HMEC1 cells assessed as accumulation at G2/M phase at 1 uM after 24 hrs by propidium iodide staining-based flow cytometric analysis; format: functional; conditions: Homo sapiens, HMEC-1

Row | Compound | IC50 [1] [µM] | IC50 [2] [µM] | IC50 [3] [µM] | IC50 (L1210) [µM] | IC50 (CCRF-CEM) [µM] | IC50 (HeLa) [µM] | other results
1 | COC(=O)Nc1nc2cc(C(=O)c3cccs3)ccc2[nH]1 | – | – | – | – | – | – | Ka (Tubulin (Homo sapiens)): 4 ×10⁵ /M
2 | CCCC(Nc1ccccc1OC)=C1C(=O)CC(c2ccccc2)CC1=O (stereo not drawn) | 31 | 27 | 16 | 36 | 41 | 59 | –
3 | COc1ccccc1NC(C)=C1C(=O)CC(C2CCCCC2)CC1=O (stereo not drawn) | 12 | 21 | 12 | > 8 | 15 | 11 | –
4 | CCC(Nc1ccccc1)=C1C(=O)CC(c2ccccc2)CC1=O (stereo not drawn) | 15 | 8.3 | 16 | 22 | 21 | 56 | –
5 | CCCC(Nc1ccccc1C)=C1C(=O)CC(c2ccccc2)CC1=O (stereo not drawn) | 44 | 47 | 46 | 41 | ≥ 100 | > 100 | –
6 | COc1ccc(OC)c(NC(C)=C2C(=O)CC(c3ccccc3)CC2=O)c1 (stereo not drawn) | 2.6 | 3.2 | 2.6 | 36 | > 6 | 46 | –
7 | COc1ccccc1NC(C)=C1C(=O)CC(Cc2ccccc2)CC1=O (stereo not drawn) | 22 | 87 | > 100 | > 100 | > 100 | > 100 | –
8 | CC(Nc1cccc(F)c1F)=C1C(=O)CC(c2ccccc2)CC1=O (stereo not drawn) | 10 | 12 | 14 | 19 | 25 | 36 | –
9 | COc1cccc(OC)c1NC(C)=C1C(=O)CC(c2ccccc2)CC1=O (stereo not drawn) | 1.4 | 1.2 | 0.46 | 1 | 1.4 | 1.1 | –
10 | CC(Nc1ccccc1C(F)(F)F)=C1C(=O)CC(c2ccccc2)CC1=O (stereo not drawn) | 7.7 | 8.7 | 8.1 | 14 | 18 | 32 | –
11 | CCC(Nc1ccccc1C)=C1C(=O)CC(c2ccccc2)CC1=O (stereo not drawn) | 2.1 | 2.8 | 2.2 | 6.9 | 6.3 | 9.2 | –
12 | COc1ccccc1NC(C)=C1C(=O)CC(c2c(C)cccc2C)CC1=O (stereo not drawn) | 35 | 39 | 41 | 24 | 23 | 55 | –
13 | CCC(Nc1cccc(OC)c1)=C1C(=O)CC(c2ccccc2)CC1=O (stereo not drawn) | 18 | 16 | 64 | 32 | 45 | 66 | –
14 | COc1cccc(C2CC(=O)C(=C(C)Nc3ccccc3OC)C(=O)C2)c1 (stereo not drawn) | 0.3 | 0.41 | 0.23 | 0.21 | 0.24 | 0.69 | inhibition (Tubulin (Bos taurus) [4]): Active; Ka (Tubulin (Bos taurus) [5]): 7.5 ×10⁶ /M
15 | COc1cc([C@@H]2c3cc4c(cc3[C@H](O)[C@H]3COC(=O)[C@H]23)OCO4)cc(OC)c1OC | – | – | – | – | – | – | Ka (Rattus norvegicus): 1.8 ×10⁶ /M
16 | CCC(Nc1ccc(OC)cc1)=C1C(=O)CC(c2ccccc2)CC1=O (stereo not drawn) | ≥ 100 | 57 | ≥ 100 | 58 | 67 | ≥ 100 | –
17 | COc1ccccc1NC(C)=C1C(=O)CC(c2ccc(C)cc2)CC1=O (stereo not drawn) | 11 | 9.2 | 8.4 | > 100 | > 100 | 90 | –
18 | CC(Nc1c(F)cccc1F)=C1C(=O)CC(c2ccccc2)CC1=O (stereo not drawn) | 6.6 | 9.2 | 8.4 | 11 | 21 | 17 | –
19 | CC(Nc1ccccc1F)=C1C(=O)CC(c2ccccc2)CC1=O (stereo not drawn) | 0.93 | 1 | 0.51 | 1.9 | 1.1 | 3.4 | –

Row | Compound | IC50 [1] [µM] | IC50 [2] [µM] | IC50 [3] [µM] | IC50 (L1210) [µM] | IC50 (CCRF-CEM) [µM] | IC50 (HeLa) [µM] | other results
20 | COc1ccccc1NC(C)=C1C(=O)CC(c2c(F)cccc2F)CC1=O (stereo not drawn) | 39 | 60 | > 100 | > 100 | > 100 | > 100 | –
21 | CCC(Nc1ccc2c(c1)OCO2)=C1C(=O)CC(c2ccccc2)CC1=O (stereo not drawn) | 53 | 50 | 43 | 38 | 53 | 76 | –
22 | COc1ccccc1NC(C)=C1C(=O)CC(C)(C)CC1=O | 76 | 71 | 48 | > 100 | > 100 | > 100 | –
23 | COc1cc2c(c(OC)c1OC)-c1ccc(OC)c(=O)cc1[C@@H](NC(C)=O)CC2 [COLCHICINE] | – | 0.031 | 0.0069 | 0.01 | – | – | Activity [6]: Active; Activity [7]: Active; inhibition (MDA-MB-231 [8]): Active; Activity (HMEC-1): Active; inhibition (MDA-MB-231 [9]): Active; inhibition (MDA-MB-231 [10]): Active; Activity (MDA-MB-231 [11]): Active
24 | CC(Nc1ccccc1C)=C1C(=O)CC(c2ccccc2)CC1=O (stereo not drawn) | 0.26 | 0.32 | 0.17 | 0.3 | 0.68 | 0.48 | Activity [12]: Active; Activity [13]: Active
25 | CC(Nc1ccccc1Cl)=C1C(=O)CC(c2ccccc2)CC1=O (stereo not drawn) | 0.56 | 0.47 | 0.29 | 0.7 | 0.64 | 0.71 | –
26 | COc1cccc(C2CC(=O)C(=C(C)Nc3ccccc3C)C(=O)C2)c1 (stereo not drawn) | 0.67 | 0.64 | 0.48 | 0.26 | 0.72 | 0.66 | –
27 | CCC(Nc1cccc(O)c1)=C1C(=O)CC(c2ccccc2)CC1=O (stereo not drawn) | 13 | 12 | 7.8 | 15 | 48 | 75 | –
28 | COc1ccccc1NC(C)=C1C(=O)CC(c2ccc(Cl)cc2)CC1=O (stereo not drawn) | 55 | 46 | 42 | 22 | 28 | 58 | –
29 | COc1ccccc1NC(C)=C1C(=O)CC(c2ccc(F)cc2)CC1=O (stereo not drawn) | 1.8 | 2.1 | 1.7 | 3.3 | 5.3 | 4 | –
30 | CCC(Nc1ccc(O)cc1)=C1C(=O)CC(c2ccccc2)CC1=O (stereo not drawn) | 28 | 18 | 36 | 14 | 34 | 79 | –
31 | COc1ccc(C2CC(=O)C(=C(C)Nc3ccccc3OC)C(=O)C2)cc1 (stereo not drawn) | > 100 | > 100 | > 100 | > 100 | > 100 | > 100 | –
32 | COc1ccccc1NC(C)=C1C(=O)CC(c2cccc(C)c2)CC1=O (stereo not drawn) | 0.33 | 0.42 | 0.26 | 0.17 | 0.31 | 0.79 | –
33 | COc1ccccc1NC(C)=C1C(=O)CC(c2ccccc2C)CC1=O (stereo not drawn) | 5.8 | 6.8 | 3.2 | 11 | 7.2 | 13 | –
34 | CCC(Nc1ccc(OC)c(OC)c1)=C1C(=O)CC(c2ccccc2)CC1=O (stereo not drawn) | > 100 | > 100 | > 100 | > 100 | > 100 | > 100 | –
35 | CCC(Nc1cc(OC)c(OC)c(OC)c1)=C1C(=O)CC(c2ccccc2)CC1=O (stereo not drawn) | > 100 | > 100 | > 100 | > 100 | > 100 | > 100 | –
36 | CC(Nc1ccccc1C)=C1C(=O)CC(c2cccc(O)c2)CC1=O (stereo not drawn) | 2.2 | 2.5 | 2.1 | 3.5 | 6.2 | 4.1 | –
37 | COc1ccccc1NC(C)=C1C(=O)CC(c2ccccc2F)CC1=O (stereo not drawn) | 4.3 | 5.4 | 2.7 | 6.3 | 4.9 | 4.8 | –
38 | CCC(Nc1ccccc1OC)=C1C(=O)CC(c2ccccc2)CC1=O (stereo not drawn) | 1.4 | 1.4 | 1.2 | 1.5 | 2.3 | 4.3 | inhibition (Tubulin (Bos taurus) [4]): Active; Ka (Tubulin (Bos taurus) [5]): 7.1 ×10⁶ /M
